Measurements as given in EP4553077A1 (Kinoteck Therapeutics Co., Ltd, priority 2022, dated 2024).

Columns and labels:
Ba/F3-TEL-FGFR2 = Ba/F3-TEL-FGFR2 (Homo sapiens, UniProt P21802+P41212); experiment: Cell viability (proliferation inhibition) of Ba/F3 cells, CellTiter Glo; settings: read-out: Ba/F3 cell FGFR2 (IC50 nM), 72 h
Ba/F3-TEL-FGFR1 = Ba/F3-TEL-FGFR1 (Homo sapiens, UniProt P11362+P41212); experiment: as above; settings: read-out: Ba/F3 cell FGFR1 (IC50 nM), 72 h
Ba/F3-TEL-FGFR3 = Ba/F3-TEL-FGFR3 (Homo sapiens, UniProt P22607+P41212); experiment: as above; settings: read-out: Ba/F3 cell FGFR3 (IC50 nM), 72 h
CYP2D6 = CYP2D6 (Homo sapiens, UniProt P10635); experiment: Cytochrome P450 inhibition in human liver microsomes
Experimental: (§3) Preparation of positive control inhibitor and compound working solution: 16 µL inhibitor stock solution or compound stock solution for each CYP subtype were taken and added to 24 µL DMSO. Then, they were diluted gradually three times with diluent to obtain different concentrations of test sample/positive control inhibitor working solution (7 concentrations each except for blank)
(§4) Preparation of liver microsomal working solution: 300 µL human liver microsomes (20.0 mg/mL) was taken and added to 29700 µL PBS and mixed well, and the concentration of the prepared human liver microsomal working solution was 0.200 mg/mL.
(§5) Preparation of 4 x NADPH working solution: A certain weight of NADPH tetrasodium salt was weighted and dissolved to a suitable volume of PBS to obtain NADPH working solution, with a concentration of 8.00 mM.
(§6) Preparation of test sample group working solution: The human liver microsomal working solution was divided into 96 well plates at 796 µL per well, and then 4 µL test sample working solution was added.
(§7) Preparation of positive control group working solution: The human liver microsomal working solution was divided into 96 well plates at 199 µL per well, and then 1 µL positive control inhibitor working solution was added.
(§8) Blank solvent working solution preparation: The human liver microsomal working solution was divided into 96 well plates at 199 µL per well, and then 1 µL DMSO was added.
(§9) (a) 30 µL test sample/positive control inhibitor working solution or 30 µL blank solvent working solution per well were transferred into a 96 well plate, and 15 µL substrate working solution of different enzyme subtypes transferred into each well, and mixed evenly. (b) The above incubation plates and 4 x NADPH working solution were preheated at 37 °C for 5 min. (c) 15 µL preheated 4 × NADPH working solution per well was transferred into the incubation plate, and the reaction initiated, and continued to be incubated at 37 °C. The incubation time is as follows:
(§10) (d) After the reaction time was reached, 180 µL termination solution was added to terminate the reaction. […] (f) After centrifugation, 80 µL supernatant was taken and added to 120 µL ultrapure water, and after it was mixed evenly, LC-MS/MS was used to analyze the metabolites of the probe substrate.

CYP3A4 = CYP3A4 (Homo sapiens, UniProt P08684); experiment: as above
Experimental: as §3, §4, §5, §6, §7, §8, §9, §10

[1] = Rat liver cells metabolic stability; format: in vitro ADME; settings: rat liver cells 0.5 × 10^6 cells/mL
Experimental: Test compound and control drug verapamil powder were prepared into […] stock solution using DMSO, and they were diluted with 50% acetonitrile/50% water to 100 µM working solution before use.
• 1) 49.5 mL Williams E Medium and 0.5 mL glutaMAX were mixed as incubation medium. The liver cell resuscitation solution and incubation solution were preheated in a 37 °C water bath for at least 15 min before use. • 2) A tube of liver cells stored at ultra-low temperature was taken and ensured that they remain in a low-temperature frozen state before resuscitation. The liver cells were placed quickly in a 37 °C water bath and shaken gently until all ice crystals were dispersed. • 3) The contents of the liver cells tubes were poured into a centrifuge tube containing 50 mL of resuscitation medium, and they were centrifuged at 100 g for 10 min. After centrifugation, the resuscitation medium was aspirated, and sufficient incubation medium was added to obtain a cell suspension with a cell density of approximately 1.0 × 10^6 cells/mL. • 4) AO/PI staining was used to count liver cells and determine viable cell density, the survival rate of liver cells must be greater than 75%. The liver cell suspension was diluted with incubation medium to a viable cell density of 0.5 × 10^6 cells/mL.
• 1) 198 µL live cell suspension was transferred to a 96 well deep well plate, and the deep well plate was placed on a vortex and preheat in the incubator for 10 min. • 2) 2 µL 100 µM test compound or positive control compound was added to each well for reaction initiation, and the deep well plate was placed back on the incubator vortex. • 3) The incubation plate was placed into the incubator for incubation. 25 µL suspension was taken at 0.5, 15, 30, 60, 90, and 120 min, and 6-fold (150 µL) acetonitrile containing internal standard quencher (100 nM alprazolam, 200 nM caffeine, and 100 nM toluenesulfonylbutamide) was added to a new 96 well plate to terminate the reaction. The plate was vortexed for 5 min and centrifuged at 3220 rpm and 4 °C for 45 min to precipitate the protein. 100 µL of supernatant was transferred to the sample plate, and 100 µL pure water was added and mixed well for UPLC-MS/MS analysis. All incubation systems were conducted in a dual parallel manner.
All data was calculated using Microsoft Excel software. Peak area was detected by extracting ion chromatogram. In vitro half-life (T1/2) and in vitro clearance rate (in µL/min/10^6 cells) of the parent drug were detected by linearly fitting of the natural logarithm of the […] percentage of the parent drug versus time. Table 6 Results of rat liver cell stability test

A204 cells = experiment: Proliferation inhibition, CCK-8 colorimetric method; format: cell-based; settings: 72 h
Experimental: (§1) CCK-8 (Bimake/B34304) colorimetric method was used to detect the in vitro proliferation inhibitory effect of compounds on suspended or adherent cells in this experiment. The specific experimental steps were as follows: • 1) Cell plating: SNU16 and A204 tumor cells (cells from Shanghai Institute of Organic Chemistry, Chinese Academy of Sciences) in the logarithmic growth phase were digested and centrifuged for trypan blue counting, and the cells were seeded into a transparent 96 well plate at a density of 4000 cells/100 µ 1/well. […] The test compound and control compound stock solution were diluted with the corresponding culture medium required for cell culture (with or without solvent DMSO) to obtain a series of working solutions, with concentrations of twice the final concentration. The solvent DMSO contents in each concentration group were consistent with that of the solvent control group. The final concentration of A204 cells started at 10 µM and was diluted twice.
(§2) Calculation of cell survival rate: Cell survival rate (%)=[(As-Ac)/(Ab-Ac)] × 100%] (As: experimental well; Ab: Solvent control well; Ac: Blank well).

SNU16 cells = experiment: as above; format: cell-based
Experimental: as §1, §2

[2] = Pharmacokinetic test in rats; format: in vivo, male SD rats; settings: rat, plasma, oral gavage administration, 10 mg/kg
Experimental: Rat pharmacokinetic experiments were performed using male SD rats, 180-220g, provided by Beijing Vital River Laboratory Animal Technology Co., Ltd. 3 rats that were fasted overnight were taken, and administered orally by gavage (10 mg/kg). Blood samples were collected before administration, as well as 5, 15, 30 min and 1, 2, 4, 6, 8, 24 h after administration; another 3 rats were taken and administered intravenously (1 mg/kg), blood samples were collected before administration, as well as 5, 15, 30 min and 1, 2, 4, 6, 8, 24 h after administration. Blood sample was centrifuged at 6800g, 2-8 °C for 6 min, and plasma was collected, and stored at -80 °C. Plasma of each time point was taken, 10 times the amount of 50% methanol acetonitrile solution containing internal standard was added, and mixed by vortex for 5 min, centrifuged at 18000 rpm at 4 °C for 10 min, and the supernatant was taken directly for LC-MS/MS analysis. The main pharmacokinetic parameters were analyzed using WinNonlin8.2 software for non compartmental model analysis. Table 3: pharmacokinetic test in rats results of test compounds

Sequence of Ba/F3-TEL-FGFR3 (P22607 472-761 limits assumed, one chain of several): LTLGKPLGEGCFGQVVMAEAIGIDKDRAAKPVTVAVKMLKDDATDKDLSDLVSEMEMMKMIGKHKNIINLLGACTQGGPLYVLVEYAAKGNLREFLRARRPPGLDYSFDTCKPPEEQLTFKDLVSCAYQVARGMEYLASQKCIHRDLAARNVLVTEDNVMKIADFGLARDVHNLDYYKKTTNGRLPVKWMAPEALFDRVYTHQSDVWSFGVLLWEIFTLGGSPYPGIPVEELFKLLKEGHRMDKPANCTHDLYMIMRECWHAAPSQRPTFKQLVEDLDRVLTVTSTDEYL
Sequence of Ba/F3-TEL-FGFR2 (P21802 481-770 limits assumed, one chain of several): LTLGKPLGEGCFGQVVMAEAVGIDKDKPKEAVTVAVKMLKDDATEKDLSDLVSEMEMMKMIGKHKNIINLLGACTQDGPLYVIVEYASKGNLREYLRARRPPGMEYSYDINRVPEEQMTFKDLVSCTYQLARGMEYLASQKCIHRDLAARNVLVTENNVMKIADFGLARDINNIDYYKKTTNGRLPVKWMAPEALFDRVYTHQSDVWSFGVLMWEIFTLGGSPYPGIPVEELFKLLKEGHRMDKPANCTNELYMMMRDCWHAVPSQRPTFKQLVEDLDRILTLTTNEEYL
Sequence of CYP2D6 (P10635 whole entry): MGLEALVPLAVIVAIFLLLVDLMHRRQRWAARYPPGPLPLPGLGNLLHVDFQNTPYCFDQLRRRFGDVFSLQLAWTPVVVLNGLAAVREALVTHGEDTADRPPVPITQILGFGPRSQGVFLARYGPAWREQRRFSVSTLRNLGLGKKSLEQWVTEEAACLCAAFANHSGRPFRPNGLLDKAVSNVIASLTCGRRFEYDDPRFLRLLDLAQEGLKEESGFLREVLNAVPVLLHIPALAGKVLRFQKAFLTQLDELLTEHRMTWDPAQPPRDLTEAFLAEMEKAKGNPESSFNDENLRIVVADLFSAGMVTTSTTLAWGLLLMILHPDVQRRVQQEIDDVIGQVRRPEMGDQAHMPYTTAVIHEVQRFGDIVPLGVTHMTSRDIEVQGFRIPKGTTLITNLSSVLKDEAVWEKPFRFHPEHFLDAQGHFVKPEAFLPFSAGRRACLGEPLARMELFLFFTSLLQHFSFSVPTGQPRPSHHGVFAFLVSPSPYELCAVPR
Sequence of Ba/F3-TEL-FGFR1 (P11362 478-767 limits assumed, one chain of several): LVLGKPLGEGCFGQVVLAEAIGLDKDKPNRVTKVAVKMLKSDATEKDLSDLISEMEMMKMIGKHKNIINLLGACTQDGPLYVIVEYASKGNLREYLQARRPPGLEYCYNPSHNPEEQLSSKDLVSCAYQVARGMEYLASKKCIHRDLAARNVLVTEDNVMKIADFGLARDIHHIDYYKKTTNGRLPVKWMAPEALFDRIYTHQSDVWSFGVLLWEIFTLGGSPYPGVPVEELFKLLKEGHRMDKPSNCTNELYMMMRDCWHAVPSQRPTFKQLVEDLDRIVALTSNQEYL
Sequence of CYP3A4 (P08684 whole entry): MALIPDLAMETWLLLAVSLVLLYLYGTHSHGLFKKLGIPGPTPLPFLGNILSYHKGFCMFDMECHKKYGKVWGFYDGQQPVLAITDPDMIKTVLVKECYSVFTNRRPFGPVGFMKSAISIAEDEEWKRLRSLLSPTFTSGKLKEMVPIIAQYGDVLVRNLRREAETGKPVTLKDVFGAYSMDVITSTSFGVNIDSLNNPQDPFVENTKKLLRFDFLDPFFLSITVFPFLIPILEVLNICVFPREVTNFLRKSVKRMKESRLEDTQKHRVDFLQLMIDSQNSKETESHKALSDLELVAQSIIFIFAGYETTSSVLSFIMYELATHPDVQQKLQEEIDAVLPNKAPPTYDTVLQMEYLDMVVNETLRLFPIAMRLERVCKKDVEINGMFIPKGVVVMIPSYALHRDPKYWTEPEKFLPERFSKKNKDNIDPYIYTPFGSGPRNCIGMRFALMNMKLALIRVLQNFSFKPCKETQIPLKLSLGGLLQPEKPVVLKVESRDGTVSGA

| Compound | IC50 (Ba/F3-TEL-FGFR2) [nM] | IC50 (Ba/F3-TEL-FGFR1) [nM] | IC50 (Ba/F3-TEL-FGFR3) [nM] | also measured |
| --- | --- | --- | --- | --- |
| C=C(C)C(=O)Nc1ccc(-c2c(-c3ccc(N=S4(=O)CCCCC4)c(F)c3)c3c(N)ncnc3n2C)c(F)c1 [Compound 7] | 2.4 | 627 | 545 |  |
| C=C(C)C(=O)Nc1ccc(-c2c(-c3ccc(N=S(=O)(CC)CC)c(F)c3)c3c(N)ncnc3n2C)cc1 [Compound 9, N-(4-(4-amino-5-(4-(diethyl (oxo) 1 λ^6-sulfanylidene) -3-fluorophenyl) -7-methyl 7H-pyrrolo [2,3-d]pyrimidin-6-yl) - phenyl) methacrylamide] | 14.9 |  |  | IC50 (CYP2D6): 24600 nM; IC50 (CYP3A4): 13500 nM |
| C=C(C)C(=O)Nc1ccc(-c2c(-c3ccc(N=S4(=O)CCCC4)c(F)c3)c3c(N)ncnc3n2C)c(F)c1 [Compound 23, N-(4-(4-amino-5-(3-fluoro-4-((1-oxotetrahydro-1 λ^6-thiophene-1-ylidene)amino)phenyl) -7-methyl-7H-pyrrolo [2,3-d]pyrimidin-6-yl) -3-fluorophenyl) methacrylamide] | 0.7 | 568 |  | Remaining percentage of compound after 60 min of incubation (%) ([1]; 60 min): 24.45%; hepatocyte CLint at 1 µM ([1]; rat liver cells (cryopreserved hepatocytes in suspension), read-out: in vitro CLint (µL/min/10^6 cells)): 48.4 µL/min/1e6 cells; half-life at 1 µM ([1]; rat liver cells (cryopreserved hepatocytes in suspension), read-out: in vitro t1/2): 28.6 min; IC50 (A204 cells; Homo sapiens): 618 nM; IC50 (SNU16 cells; Homo sapiens, SNU-16, 72 h): 2.4 nM |
| C=C(C)C(=O)Nc1ccc(-c2c(-c3ccc(N=S4(=O)CCCC4)c(F)c3)c3c(N)ncnc3n2C)c(C#N)c1 [Compound 26, N-(4-(4-amino-5-(3-fluoro-4-((1-oxotetrahydro-1 λ^6-thiophene-1-ylidene)amino)phenyl) -7-methyl-7H-pyrrolo [2,3-d]pyrimidin-6-yl) -3-cyanophenyl) methacrylamide] | 4.5 |  | 110 | IC50 (A204 cells; Homo sapiens): 285 nM; IC50 (SNU16 cells; Homo sapiens, SNU-16, 72 h): 3.36 nM |
| C=C(C)C(=O)Nc1ccc(-c2c(-c3ccc(N=S4(=O)CCCC4)c(F)c3)c3c(N)ncnc3n2C)cc1 [Compound 33, N-(4-(4-amino-5-(3-fluoro-4-((1-oxotetrahydro-1 λ^6-thiophene-1-ylidene)amino)phenyl) -7-methyl-7H-pyrrolo [2,3-d]pyrimidin-6-yl)phenyl) methacrylamide] | 11.2 | 2310 | 1290 | AUC(0-t) ([2]; male, SD): 778 ng·h/mL; Cmax ([2]; male, SD): 306 ng/mL; Tmax ([2]; male, SD): 25.2 min; half-life ([2]; male, SD): 79.2 min; IC50 (CYP2D6): 9520 nM; IC50 (CYP3A4): 19200 nM |
| C=C(C)C(=O)Nc1ccc(-c2c(-c3ccc(N=S(=O)(N(C)C)C(F)(F)F)c(F)c3)c3c(N)ncnc3n2C)cc1 (stereo not shown) [Compound 48] | 0.9 | 625 | 577 | AUC(0-t) [2]: 883 ng·h/mL; Cmax [2]: 212 ng/mL; Tmax [2]: 49.8 min; half-life [2]: 206 min |
| C=C(C)C(=O)Nc1ccc(-c2c(-c3ccc(N=S4(=O)CCC4)c(F)c3)c3c(N)ncnc3n2C)cc1 [Compound 56] | 12.6 |  |  | IC50 (CYP2D6): 5540 nM; IC50 (CYP3A4): 13200 nM |
| C=C(C)C(=O)Nc1ccc(-c2c(-c3ccc(N=S4(=O)CCCC4)c(Cl)c3)c3c(N)ncnc3n2C)c(F)c1 [Compound 88, N-(4-(4-amino-5-(3-chloro-4-((1-oxidetetrahydro-1 λ^6-thiophene-1-ylidene)amino)phenyl) -7-methyl-7H-pyrrolo [2,3-d]pyrimidin-6-yl) -3-fluorophenyl) methacrylamide] | 1.5 | 561 | 216 |  |
| [2H]C([2H])([2H])n1c(-c2cc(C)c(NC(=O)C(=C)C)cc2Cl)c(-c2ccc(N=S3(=O)CCCC3)c(F)c2)c2c(N)ncnc21 [Compound 90, N-(4-(4-amino-5-(3-fluoro-4-((1-tetrahydro-1λ^6-thiophene-1-ylidene)amino)phenyl) -7-(methyl-d3) -7H-pyrrolo [2,3-d]pyrimidin-6-yl) -5-chloro-2-methylphenyl) methacrylamide] | 3.6 |  | 174 |  |
| [2H]C([2H])([2H])n1c(-c2ccc(NC(=O)C(=C)C)cc2F)c(-c2ccc(N=S3(=O)CCCC3)c(F)c2)c2c(N)ncnc21 [Compound 94] | 1.1 | 625 | 205 |  |
| C=C(C)C(=O)Nc1ccc(-c2c(-c3ccc(N=S(=O)(CC)CC)c(F)c3)c3c(N)ncnc3n2C)c(F)c1 [Compound 100] | 1.9 | 823 | 414 |  |
| N-(4-(4-amino-7-methyl-5-(4-(1-oxotetrahydro-2H-1λ^6-thiopyran-1- imino) phenyl) -7H-pyrrolo [2,3-d] pyrimidin-6-yl) -3-fluorophenyl) methacrylamide [Compound 1] | 2.3 | 656 | 869 | IC50 (A204 cells): 1310 nM; IC50 (SNU16 cells; 72 h): 5.57 nM |
